In ChEMBL document CHEMBL1151274, “Halogenated helianane derivatives from the sponge Spirastrella hartmani” (2005):
Activity calls are given as the source filed them. The calls are words filed in the database; no cut-off is given here.

Key:
Type in all cases: functional
[1] = test system: MDA-MB-231; test: Cytotoxicity against human MDA-MB-231 cells by sulforhodamine B assay
[2] = test system: A549; test: Cytotoxicity against human A549 cells by sulforhodamine B assay
[3] = test system: HT-29; test: Cytotoxicity against human HT-29 cells by sulforhodamine B assay

SMILES | Activity [1] | Activity [2] | Activity [3] | GI50 [1] [µM] | GI50 [2] [µM] | GI50 [3] [µM]
Cc1cc2c(cc1Br)[C@@H](C)CCCC(C)(C)O2 | inactive | inactive | inactive |  |  | 
COc1cc2c(cc1O)CCN[C@]21CS[C@@H]2c3c(OC(C)=O)c(C)c4c(c3[C@H](COC1=O)N1[C@@H]2[C@H]2c3c(cc(C)c(OC)c3O)C[C@@H]([C@@H]1O)N2C)OCO4 [TRABECTEDIN] |  |  |  | 0.0184 | 0.0263 | 0.0197
Cc1cc2c(cc1Cl)[C@@H](C)CCCC(C)(C)O2 |  |  |  | 37.6 | 37.2 | 37.6
